What was measured:
[1] = tested on: CD8+ T cells in TME of TC-1 tumors; assay: Immune profiling of the TME, TC-1 tumor-bearing mice; format: in vivo, mouse
Text: Two-to-three days after the second vaccination, mice in the various groups were euthanized and tumors were collected.
A total of 0.1-0.2×10^6 cells per sample were stained for Live/Dead staining followed by fixation and permeabilization. For IFNγ and granzyme B (Gzm B) staining, BD Cytofix/Cytoperm (catalog no. 51-2090KZ) and BD Perm/Wash (catalog no. 51-2091KZ) buffer set were used according to the manufacturer's instructions (BD Pharmingen). CD8^+ T cells from tumor samples were stained similarly. Data acquisition was performed on a BD LSR II flow cytometer using the software FACS Diva v.9.0. Results were analyzed using FlowJo software (TreeStar). MitoFM, a green-fluorescent mitochondrial stain, which localizes to mitochondria, was used as described previously (Sukumar et al., Cell Metab 23 (1): 63-76, 2016).

pMel-1 CD8 T cells [2] = assay: Metabolomics and lipidomics of activated CD8 T cells; format: cell-based, mouse; conditions: PARPi-treated vs gp100 activated, 48 h
Method: Targeted metabolomics method, developed in-house, was used to quantitate 270 endogenous metabolites using QTRAP® 7500 LC-MS/MS System (Sciex, MA, USA). For this purpose, 20 μL of PBS was added to the cell pellet and sample tube was plunged into dry ice for 30 seconds and 37° C. water bath for 90 seconds. This cycle was repeated for two more times and then samples were sonicated for 1 minute and 100 μL of extraction buffer (methanol/water 50/50) containing 200 ng/ml of debrisoquine (DBQ) as internal standard for positive mode and 200 ng/mL of 4-nitrobenzoic acid as internal standard for negative mode was added. The samples were vortexed for 1 min and kept on ice for 20 minutes followed by addition of 100 μL of ACN. The samples were incubated at −20° C. for 20 minutes for protein precipitation. The samples were centrifuged at 13,000 rpm for 20 minutes at 4° C. The supernatant was transferred to MS vial for LC-MS analysis. 20 μL of each prepared sample was mixed to generate the pooled QC sample.
Five microliter of the prepared sample was injected onto a Kinetex 2.6 μm polar C18 100 Å 100×3.0 mm (Phenomenex, CA, USA) using SIL-30AC autosampler (Shimadzu) connected with a high flow LC-30AD solvent delivery unit (Shimadzu) and CBM-20A communication bus module (Shimadzu) online with QTRAP 5500 (Sciex, MA, USA) operating in positive and negative ion mode. A binary solvent comprising of water with 0.1% formic acid (solvent A) and acetonitrile with 0.1% formic acid (solvent B) was used. The extracted metabolites were resolved at 0.2 mL/min flow rate. The LC gradient conditions were as follows: Initial—100% A, 0% B for 2.1 minutes; 14 minutes—5% A, 95% B till 15 minutes; 15.1 minutes—100% A, 0% B till 20 minutes. The auto sampler and oven were kept at 15° C. and 30° C., respectively. Source and gas setting for the method were as follow: curtain gas=40, CAD gas=9, ion spray voltage=1700 V in positive mode and ion spray voltage=1600 V in negative mode, temperature=350° C., ion source gas 1=30 and ion source gas 2=50. […]

pMel-1 CD8 T cells [3] = assay: RNA-sequencing of gp100-activated pMel-1 CD8 T cells; format: cell-based, mouse
Text: Ribo-Zero Plus Kit from Illumina® was used for stranded Total RNA Prep Ligation. This protocol involves the removal of ribosomal RNA (rRNA) using biotinylated, target-specific oligos combined with Ribo-Zero rRNA removal beads. RNA was fragmented into small pieces and the cleaved RNA fragments were copied into first strand cDNA using reverse transcriptase and random primers, followed by second strand cDNA synthesis using DNA Polymerase I and RNase H. The resulting double-strand cDNA were used as the input to a standard Illumina library prep with end-repair, adapter ligation and PCR amplification being performed to give a sequencing ready library. The final purified product was then quantitated by qPCR before cluster generation and sequencing on NovaSeq 6000 instrument.

NAD = NAD accumulation assay; format: cell-based, mouse; conditions: activated pMel-1 CD8 T cells, 48 h
Method: pMel-1 CD8 T cells were activated with gp100 in the presence or absence of PARPi for 48 h. Cells were washed with cold PBS and pelleted in a microcentrifuge tube by centrifuging at 2,000 rpm for 5 minutes. Cells were lysed with 400 μL of NADH/NAD extraction buffer and then centrifuged at 13,000 g for 10 minutes to remove insoluble material. The supernatants were collected and the levels of NAD in the cell lysates were estimated using the NAD/NADH Quantitation Kit according to the manufacturing kit (Millipore NAD/NADH Quantification Kit Sigma #MAK037).

O=C(c1cc(Cc2n[nH]c(=O)c3ccccc23)ccc1F)N1CCN(C(=O)C2CC2)CC1 [olaparib]
number of total and antigen-specific CD8+ T cells in TME ([1]; TC1, vaccinated in the presence of PARPi vs either treatment alone): significant increase | IFNγ+ and granzyme B+ total and antigen-specific CD8+ T cells ([1]; TC-1, PARPi given with the vaccine): enhanced functionality | CD44hiCD62Lhi CD8 T cells within the TCM compartment in the TME ([1]; TC-1, PARPi in combination with vaccine): appearance of a distinct population | vaccine-induced total and antigen-specific effector (TEM) and central memory (TCM) CD8 T cells in the TME ([1]; TC-1, PARPi with vaccine): increased | proliferation of CD8 T cells as determined by Ki67 expression ([1]; TC-1 TME): significant decrease | TAGs (lipidomic analysis) (pMel-1 CD8 T cells [2]): increased level | metabolites related to TCA cycle (fumarate, malate, glutamate, FAD) (pMel-1 CD8 T cells [2]): significantly increased | top 50 differentially expressed metabolites (pMel-1 CD8 T cells [2]): increased | genes related to OXPHOS and FAO (Acot1, Cpt1α) (pMel-1 CD8 T cells [3]; PARPi-treated vs gp100, 48 h): significantly upregulated | genes related to the glycolysis pathway (Eno1, Aldoc, Pgk1, Gapdh) (pMel-1 CD8 T cells [3]; PARPi-treated vs gp100, 48 h): significantly downregulated | expression of genes related to memory (Sell, Bcl2, Ccr7, Slpr1, Cd44, Tcf7, Klf2, Eomes) (pMel-1 CD8 T cells [3]; after PARPi treatment, 48 h): significant increase | accumulation of NAD (NAD): significantly enhanced
